Reference: US9597297B2, “Combination of pilocarpin and methimazol for treating Charcot-Marietooth disease and related disorders” (PHARNEXT, priority 2008, dated 2017)

Columns and labels:
[1] = Body weight of CMT rats during treatment; format: in vivo, rat; details: treated group comparatively with placebo group, data not shown
Method: The animals are weighted twice a week in order to adjust the doses to growing body weight. If the osmotic pump is chosen for the treatment administration, the doses of the drug are calculated on the basis of the estimated mean body weight of the animals expected for their age over the period of the pump duration (6 weeks). The pumps are re-implanted if necessary, with the appropriated anaesthesia protocol.
Body weights, overt signs (coat appearance, body posture, tremor) of the animals are monitored throughout the experiment. The rating scale is used for recording: 0=normal, 1=abnormal.

PMP22 protein = PMP22 protein expression analysis by flow cytometry (FACS) in primary rat Schwann cells; format: cell-based; details: 1 μM
Method: One day later, primary Schwann cells are stimulated by drugs during 24 hrs (3 wells/condition). The preparation of each compound is performed just prior to its addition to the cell culture medium. The following PCR conditions are used: Denaturation 5 min at 95° C. followed by 10 sec at 95° C., 40 sec at 60° C. and 10 sec at 72° C. and 1 min at 40° C. (Forty amplification cycles). The relative levels of PMP22 gene expression are measured following the Ct method comparing the quantity of products generated from the target gene PMP22 and the […] 8 hrs, 24 hrs and 48 hrs after drugs incubation, supernatants of primary rat Schwann cells are recovered, centrifuged and frozen. SC are detached with trypsin-EDTA. As soon as the majority of cells are in suspension, the trypsin is neutralised using DMEM with 10% FCS. Supernatants with cells are recovered and centrifuged. […] Forward Scatter (FSC) correlated with cell volume (size) and Side Scatter (SSC) depending on inner complexity of cells (granularity) are analysed. For expression of PMP22, analysis is performed within the total cells and percent of positive cells is calculated. Positive cells are cells with fluorescence intensity higher than the control with secondary antibody.

SMILES | entire body weight [1] | decrease of PMP22 protein level of expression (PMP22 protein; 24 hrs of incubation) [%] | change of PMP22 protein level of expression (PMP22 protein; 48 hrs of incubation, p<0.001) [%]
Cn1cc[nH]c1=S [methimazole, 1-methyl-3H-imidazole-2-thione] | rather diminished |  | 
CC[C@@H]1C(=O)OC[C@@H]1Cc1cncn1C [pilocarpine, (3S,4R)-3-ethyl-4-[(3-methylimidazol-4-yl)methyl]oxolan-2-one] |  | 38 | −18
